{"source": "patent US9908890B2", "about": "“Selective inhibitors of constitutive androstane receptor” (ST. JUDE CHILDREN'S RESEARCH HOSPITAL, priority 2014, dated 2018)", "key": {"[1]": {"molecular_target": "T1, hPXR (Homo sapiens, UniProt O75469)", "T1 construct": "expressed in transfected cells", "T1 sequence (O75469 1-434)": "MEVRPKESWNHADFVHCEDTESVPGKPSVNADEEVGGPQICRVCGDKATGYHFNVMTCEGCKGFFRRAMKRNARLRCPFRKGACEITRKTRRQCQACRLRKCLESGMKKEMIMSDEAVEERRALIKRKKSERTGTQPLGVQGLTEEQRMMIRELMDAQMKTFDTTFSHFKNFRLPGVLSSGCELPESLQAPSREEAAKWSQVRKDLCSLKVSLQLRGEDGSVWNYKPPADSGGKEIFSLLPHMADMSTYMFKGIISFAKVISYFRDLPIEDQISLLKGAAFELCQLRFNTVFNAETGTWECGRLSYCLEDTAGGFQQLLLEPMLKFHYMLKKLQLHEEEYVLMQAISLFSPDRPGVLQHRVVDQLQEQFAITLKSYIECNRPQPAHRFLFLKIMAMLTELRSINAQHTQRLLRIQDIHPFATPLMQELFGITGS", "experiment": "PXR luciferase assay (HepG2-PXR Clone 1, CYP3A4-luciferase reporter)", "type": "cell-based", "experimental": "Luciferase activity was measured 24 h after treatment by using SteadyLite™ reagent. […] GraphPad Prism was used to fit the data into a dose-response equation to derive IC50 values. […] The percentage of PXR activation was calculated by setting that of DMSO-treated cells (negative control) to 0%, and that of 5 μM rifampicin-treated cells (positive control) to 100%. HepG2 cells stably expressing hPXR and CYP3A4-luciferase reporter (PXR Clone 1) were treated with indicated compounds for 24 h. Luciferase activity was measured 24 h after treatment by using SteadyLite reagent. The percentage of PXR activation was calculated by setting that of DMSO-treated cells (negative control) to 0%, and that of 5 μM rifampicin-treated cells (positive control) to 100%.\nBriefly, HepG2 cells were transiently transfected with plasmids expressing hCAR1, CYP3A4-luc reporter and control plasmid pTK-RL. […] Dual luciferase activity was measured 24 h after treatment using Dual-Glo® luciferase reagent. Renilla luciferase was used to normalize firefly luciferase values and % Luciferase activity was calculated by setting DMSO to 100%. p<0.001, when comparing DMSO to all treatments except 5 μM rifampicin. […] Briefly, HepG2-PXR Clone 1 cells were treated with CINPA1 in a dose-responsive format (40 μM to 2 nM, 1-to-2 dilutions for 10 concentrations) in the presence or absence of 5 μM rifampicin (Rif) for 24 h before luciferase assay using SteadyLite™. % PXR activity was calculated by setting DMSO (negative. control) treated cells to 0% and 5 μM rifampicin (positive. control) treated cells to 100%. GraphPad Prism was used to fit the data into a dose-response stimulation equation to derive IC50 values. […] Briefly, U2OS cells were transiently transfected with plasmids expressing hCAR1, CYP2B6-luc reporter and control plasmid pTK-RL. […] Dual luciferase activity was measured 24 h after treatment. Renilla luciferase was used to normalize firefly luciferase values and % Luciferase activity was calculated by setting DMSO to 100%. *, p<0.0001 comparing CITCO+CINPA1 to CITCO treated cells. […]"}, "[2]": {"test_system": "FXR, GR, LXRα, LXRβ, PPARγ, RXRα, RXRβ, VDR", "experiment": "GeneBLAzer nuclear receptor assays", "type": "cell-based", "conditions": "18 μM", "experimental": "FIG. 3B-FIG. 31 show representative data for treatment of GeneBLAzer® cells treated with DMSO (negative control), a predetermined concentration of the indicated nuclear receptor (“NR”) antagonist (positive control; concentration as detailed in Examples), or 18 μM of CINPA1 in the presence or absence the indicated NR agonist (i.e., indicated below treatments). NR-mediated β-lactamase activity was measured as a FRET ratio after 24 h treatment. Data is presented as % Activity, determined by setting the maximum FRET signal obtained for each receptor (in the respective agonist+DMSO wells) to 100%. eGugg=e Guggulsterone, Feno=Fenofibrate, GW9=GW9662, 22HC=22(S)-hydroxycholesterol, 9-cis RA=9-cis retinoic acid.\nGeneBLAzer® cells individually expressing the ligand-binding domains of either FXR, GR, LXRα, LXRβ, PPARγ, RXRα, RXRβ, or VDR fused to the GAL4-DNA binding domain (GAL4-DBD) were obtained from Life Technologies (Li, G., et al. (2012) Tox. Appl. Pharm. 258, 268-274; and Yu, D. D., et al. (2013) Bioorg. Med. Chem 21, 4266-4278). Upon activation with the respective agonist, β-lactamase is expressed under the transcriptional control of an Upstream Activator Sequence (UAS), and a FRET-based substrate (CCF2-AM) is used to measure the enzyme activity of β-lactamase."}}}
{"compound": "CCOC(=O)Nc1ccc2c(c1)N(C(=O)CN(CC)CC)c1ccccc1CC2", "note": "[CINPA1]", "values": [{"measurement": "inhibition of PXR-mediated gene expression", "setting": "[1]; 18 μM CINPA1 with 5 μM rifampicin, 24 h", "result": "weakly inhibited PXR-mediated gene expression"}, {"measurement": "agonistic effect on PXR-regulated gene expression", "setting": "[1]; 40 μM", "result": "did not exhibit any agonistic effect"}, {"measurement": "IC50", "setting": "[1]; in the presence of 5 μM rifampicin, read-out: IC50, antagonist of PXR", "result": 6.6, "unit": "µM"}, {"measurement": "attenuation of agonist-induced receptor activation", "setting": "[2]; with NR agonist", "result": "did not attenuate the agonist-induced activation of any of the receptors tested"}, {"measurement": "activation of nuclear receptors", "setting": "[2]; without agonist", "result": "did not activate any of the nuclear receptors tested"}]}
